Assay results reported in patent US12391670B2, “Functionalized aminotriazines” (LEADXPRO AG, priority 2018, dated 2025).
Where two headings read alike, the source gives them in different places.

Tests used:
[1] = target: human thermostabilised A2B receptor; assay: Wave Guided Interferometry (WGI); type: binding; settings: 1:1 interaction model
Protocol: Biophysical Assays: A2B and A2A receptors used for biophysical measurements were produced using baculovirus mediated expression in insect cells. Expression constructs for both receptors contained point mutations that increased receptor thermal stability. Thermostabilised A2B and A2A receptors were solubilized using mild detergents (DDM and DM, respectively) and purified by standard purification methods. A2B receptor was purified in the buffer containing: 40 mM Tris-HCl pH 7.4, 200 mM NaCl, 0.05% DDM, and 0.005% CHS. A2A receptor was purified in the buffer containing: 40 mM Tris-HCl pH 7.4, 200 mM NaCl, 0.15% DM, and 0.002% CHS.
WGI experiments with A2B receptor were performed using the Wave delta instrument (Creoptix AG), a label free surface biosensor. Purified A2B protein was immobilized on 4PCP-N chips (Creoptix, quasi planar NTA functionalized polycarboxylate surface) at typical levels between […]. Running buffer was 25 mM Tris-HCl pH 7.5, 350 mM NaCl, 0.1% DDM, and 2% DMSO. The procedure started with 40 start-up cycles in order to equilibrate and stabilize the surface. Once start-up cycles were performed, different concentrations of compounds (diluted in running buffer, and adjusted depending on the kinetic characteristics) were injected in a multi cycle kinetic mode with typical association time of 120 s and dissociation time of 240 s. A DMSO calibration (typically 5 concentrations between 1 and 3% DMSO) was performed for every experiment in order to calibrate DMSO levels as well as to estimate the missing volume taken by the protein on the chip. Data were evaluated with Creoptix Wave software (Creoptix AG). All final signals are double referenced with injections of same compound concentrations on a reference channel and with buffer injections on the active channel (where protein is immobilized) and fitted with a 1:1 interaction model in order to obtain KD values.

human A2A receptor = human A2A receptor (Homo sapiens (Human), UniProt P29274); assay: Radioligand binding competition assay, [3H]-NECA, membranes from HEK293 cells transfected with human A2A receptor; settings: for Human A2A Receptor pKi / IC50: radioligand binding
Protocol: (§1) For all four adenosine receptors (A1, A2A, A2B and A3) filtration binding assay was performed. Radioligand binding competition assay was done in duplicates in the wells of a 96-well plate (Master Block, Greiner, 786201) containing binding buffer, receptor membrane extracts, a fixed concentration of tracer and test compound at increasing concentrations. In order to eliminate effect of buffer components, binding buffer was the same for all four receptors and contained: 50 mM Tris-HCl pH 7.4, 5 mM MgCl2, 1 mM EDTA, 150 mM NaCl, 0.1% Na-azide, and 5 U/ml adenosine-deaminase. Nonspecific binding was determined by co-incubation with 200-fold excess of cold competitor. In all radioligand binding experiments, the samples were incubated in a final volume of 0.1 ml for 60 minutes at 25° C. and then filtered over Unifilter plates (Perkin Elmer) pre-treated for 2 hours to limit tracer non-specific binding. Filters were washed five times with 0.5 ml of ice-cold washing buffer (50 mM Tris-HCl pH 7.4, 5 mM MgCl2, 1 mM EDTA) and 50 μl of Microscint 20 (Perkin Elmer) were added to each filter. The plates are incubated 15 min at room temperature on an orbital shaker and then counted with a TopCount™ for 1 min/well.
For A2A receptor the assay was performed with [^3H]-NECA and membranes from HEK293 cells transfected with human A2A receptor (Euroscreen FAST-002B).

human A2B receptor [2] = target: T1, human A2B receptor (Homo sapiens (Human), UniProt P29275); assay: Radioligand binding competition assay, [3H]-DPCPX, membranes from HEK293 cells transfected with human A2B receptor
Protocol: as §1
For A2B, the assay was carried with [^3H]-DPCPX and membranes prepared from HEK293 cells transfected with human A2B receptor (Euroscreen FAST-003B).

human A3 receptor = human A3 receptor (Homo sapiens (Human), UniProt P0DMS8); assay: Radioligand binding competition assay, [125I]-MECA, membranes from CHO-K1 cells transfected with human A3 receptor
Protocol: as §1
For A3, the assay was carried out with [^125I]-MECA and membranes from CHO-K1 cells transfected with human A3 receptor (Euroscreen FAST-004B).

human A1 receptor = human A1 receptor (Homo sapiens (Human), UniProt P30542); assay: Radioligand binding competition assay, [3H]-DPCPX, membranes from CHO-K1 cells transfected with human A1 receptor
Protocol: as §1
For A1 receptor the assay was performed with [^3H]-DPCPX and membranes from CHO-K1 cells transfected with human A1 receptor (Euroscreen FAST-00B).

[3] = target: A2B receptors endogenously expressed in HEK293 cells (Homo sapiens (Human), UniProt P29275); assay: cAMP assay (a), HEK293 cells with A2B receptors endogenously expressed; type: cell-based; settings: stimulated with 5 μM NECA
Protocol: (§2) Two assays have been employed, one using HEK293 with A2B receptors endogenously expressed (named cAMP assay (a) in the following) and a second one using HEK293 cells impressing recombinant human A2B receptors (named cAMP assay (b) in the following)
Real-time cAMP-assays in live cells were performed in HEK293 cells stably expressing the EPAC-sensor (I. Vedel, et al., 2015, J. Biomol. Screen. 20, 849-857).
In order to test for cAMP inhibition by preferred compounds of formula I and antagonists, respectively, from this invention, endogenous A2A and A2B expression in above cell lines was exploited. To run the assay, cells were incubated in 80 μl assay buffer for 15 minutes at room temperature. The assay buffer was composed of Hanks Balanced Salt Solution (Gibco) with 20 mM HEPES, pH 7.4 and […] adenosine-deaminase. All cAMP assays were run at room temperature using a PHERAstar FSX plate reader. The FRET donor (mCerulean) was excited at 430 nm. Fluorescence emission was measured at 480 nm and 530 nm for 65 minutes (cycle time 1.45 min). Prior to stimulation fluorescence was measured for 10 min (baseline). Subsequently cells were stimulated with 5 μM NECA (5′-(N-Ethylcarboxamido)adenosine; Tocris, Cat.-No:35920-39-9). Sharply 10.15 min after stimulation the compounds were added at increasing concentrations (between 0 and 200 μM) and fluorescence was recorded for 40 min. Each compound concentration was measured in duplicates.

human A2B receptor [4] = target: T1, human A2B receptor; assay: cAMP assay (b), HEK293 cells expressing recombinant human A2B receptor; type: cell-based; settings: reference agonist at EC80, read-out: cAMP pIC50 (converted)
Protocol: as §2
Dose response curves were performed in parallel with the reference compounds. 12 μl of cells were mixed with 6 μl of the test compound at increasing concentrations and then incubated 10 min. Thereafter 6 μl of the reference agonist was added at a final concentration corresponding to the historical EC80. The plates were then incubated for 30 min at room temperature. After addition of the lysis buffer and 1 hour incubation, cAMP concentrations were estimated, according to the manufacturer specification, with the HTRF kit.

[5] = read-out: cAMP pIC50 (converted)

Sequence of human A2A receptor (P29274 whole entry): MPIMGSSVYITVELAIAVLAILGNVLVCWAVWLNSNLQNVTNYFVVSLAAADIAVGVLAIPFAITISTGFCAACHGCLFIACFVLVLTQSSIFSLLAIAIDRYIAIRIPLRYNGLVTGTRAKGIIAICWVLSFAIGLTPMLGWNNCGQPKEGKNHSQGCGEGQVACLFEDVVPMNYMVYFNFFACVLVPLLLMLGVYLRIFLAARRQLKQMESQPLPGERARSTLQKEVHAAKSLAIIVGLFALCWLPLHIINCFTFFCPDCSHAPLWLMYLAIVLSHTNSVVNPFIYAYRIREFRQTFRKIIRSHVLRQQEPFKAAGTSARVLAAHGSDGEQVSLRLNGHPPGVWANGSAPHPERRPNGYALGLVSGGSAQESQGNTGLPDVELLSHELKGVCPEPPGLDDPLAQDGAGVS
Sequence of A2B receptors endogenously expressed in HEK293 cells (P29275 whole entry): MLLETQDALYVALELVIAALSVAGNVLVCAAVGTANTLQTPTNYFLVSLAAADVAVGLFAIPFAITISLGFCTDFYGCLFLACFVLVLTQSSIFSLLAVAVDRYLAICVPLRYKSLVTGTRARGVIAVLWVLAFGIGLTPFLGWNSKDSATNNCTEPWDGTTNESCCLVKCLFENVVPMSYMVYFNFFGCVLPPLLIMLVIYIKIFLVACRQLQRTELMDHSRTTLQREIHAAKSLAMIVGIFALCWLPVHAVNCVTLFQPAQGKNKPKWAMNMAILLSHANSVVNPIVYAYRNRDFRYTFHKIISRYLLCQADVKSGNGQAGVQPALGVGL
T1 sequence (P29275 whole entry): as above
Sequence of human A1 receptor (P30542 whole entry): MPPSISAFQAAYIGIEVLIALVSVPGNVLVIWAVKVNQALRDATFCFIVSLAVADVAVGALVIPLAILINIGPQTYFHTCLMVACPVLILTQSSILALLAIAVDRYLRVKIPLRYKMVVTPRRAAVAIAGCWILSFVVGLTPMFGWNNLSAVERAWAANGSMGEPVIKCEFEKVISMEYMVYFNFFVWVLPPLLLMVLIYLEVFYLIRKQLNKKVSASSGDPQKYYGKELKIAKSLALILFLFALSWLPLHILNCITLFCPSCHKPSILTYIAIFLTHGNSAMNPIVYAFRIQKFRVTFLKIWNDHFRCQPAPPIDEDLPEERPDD
Sequence of human A3 receptor (P0DMS8 whole entry): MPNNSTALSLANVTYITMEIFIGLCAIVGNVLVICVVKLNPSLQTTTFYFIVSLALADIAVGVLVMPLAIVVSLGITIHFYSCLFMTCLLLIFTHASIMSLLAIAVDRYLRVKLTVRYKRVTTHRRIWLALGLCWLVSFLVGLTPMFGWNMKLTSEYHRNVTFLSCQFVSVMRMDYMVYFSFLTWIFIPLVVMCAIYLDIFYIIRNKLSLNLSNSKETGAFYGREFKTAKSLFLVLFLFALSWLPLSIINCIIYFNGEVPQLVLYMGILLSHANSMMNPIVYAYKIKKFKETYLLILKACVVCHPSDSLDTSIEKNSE

| Structure (SMILES) | Kd [1] [nM] | Human A2A Receptor pKi (human A2A receptor) | IC50 (human A2A receptor) [nM] | Human A2B Receptor pKi (human A2B receptor [2]) | IC50 (human A2B receptor [2]) [nM] | inhibition at 50 µM (human A2A receptor) [%] | Human A3 Receptor pKi (human A3 receptor) | IC50 (human A3 receptor) [nM] | Human A1 Receptor pKi (human A1 receptor) | IC50 (human A1 receptor) [nM] | IC50 [3] [nM] | IC50 [3, 5] [nM] | IC50 (human A2B receptor [4]) [nM] |
| --- | --- | --- | --- | --- | --- | --- | --- | --- | --- | --- | --- | --- | --- |
| Cc1nsc(Nc2nnc(-c3ccnc(C(F)(F)F)c3)c(-c3ccccc3F)n2)n1 [Example 11, N-(5-(2-fluorophenyl)-6-(2-(trifluoromethyl)pyridin-4-yl)-1,2,4-triazin-3-yl)-3-methyl-1,2,4-thiadiazol-5-amine] | 470 |  |  |  |  |  |  |  |  |  |  |  |  |
| Fc1cnccc1-c1nnc(Nc2nc(Cl)cs2)nc1-c1cccnc1 [Example 4, 4-chloro-N-(6-(3-fluoropyridin-4-yl)-5-(pyridin-3-yl)-1,2,4-triazin-3-yl)thiazol-2-amine] | 1000 | 5.48 | 3280 | 6.5 | 360 |  |  |  |  |  |  |  |  |
| CNC(=O)Nc1nnc(-c2ccncc2F)c(-c2ccccc2F)n1 [Example 16, 1-(5-(2-fluorophenyl)-6-(3-fluoropyridin-4-yl)-1,2,4-triazin-3-yl)-3-methylurea] | 100 | <4.70 |  | 6.84 | 160 | 48 | 5.14 | 9520 | 5.73 | 3790 |  |  |  |
| Fc1cnccc1-c1nnc(Nc2cccnc2)nc1-c1cccnc1 [Example 1, 6-(3-fluoropyridin-4-yl)-N,5-di(pyridin-3-yl)-1,2,4-triazin-3-amine] | 500 | 4.73 | 18500 | 6.55 | 320 |  |  |  | 5.02 | 19000 | 400 | 398 |  |
| Cc1n[nH]c(Nc2nnc(-c3ccncc3F)c(-c3ccccc3F)n2)n1 [Example 15, 5-(2-fluorophenyl)-6-(3-fluoropyridin-4-yl)-N-(3-methyl-1H-1,2,4-triazol-5-yl)-1,2,4-triazin-3-amine] | 120 | 4.4 | 39400 | 6.82 | 170 |  | 4.48 | 43500 | 6.23 | 1180 |  |  | 501 |
| Fc1cccc(Nc2nnc(-c3ccncc3F)c(-c3cccnc3)n2)c1 [Example 2, N-(3-fluorophenyl)-6-(3-fluoropyridin-4-yl)-5-(pyridin-3-yl)-1,2,4-triazin-3-amine] | 1000 | 4.9 | 12700 | 6.99 | 120 |  |  |  | 5.43 | 7440 | 630 | 631 |  |
| Fc1ccccc1-c1nc(Nc2cccnc2)nnc1-c1ccnc(C(F)(F)F)c1 [Example 8, 5-(2-fluorophenyl)-N-(pyridin-3-yl)-6-(2-(trifluoromethyl)pyridin-4-yl)-1,2,4-triazin-3-amine] | 130 |  |  |  |  |  |  |  |  |  |  |  |  |
| Cc1cc(Nc2nnc(-c3ccncc3F)c(-c3ccccc3F)n2)[nH]n1 [Example 14, 5-(2-fluorophenyl)-6-(3-fluoropyridin-4-yl)-N-(3-methyl-1H-pyrazol-5-yl)-1,2,4-triazin-3-amine] | 240 | <4.70 |  | 6.93 | 460 | 54 | 4.68 | 27100 | 5.96 | 2200 |  |  |  |
| OCc1ncc(Nc2nnc(-c3ccncc3F)c(-c3ccccc3F)n2)cn1 [Example 39, (5-{[5-(2-fluorophenyl)-6-(3-fluoropyridin-4-yl)-1,2,4-triazin-3-yl]amino}pyrimidin-2-yl)methanol] |  | 5.66 |  | 7.76 |  |  | 6.52 |  | 6.19 |  |  |  | 41.7 |
